From ChEMBL document CHEMBL3879901, “Substituted isoquinolin-1(2H)-ones, and methods of use thereof” (2012) come the findings set out here.

Bounds are passed on as bounds.

For assay [1], the target named is Phosphatidylinositol 4,5-bisphosphate 3-kinase catalytic subunit gamma isoform (Homo sapiens, UniProt P48736). Briefly: Inhibition of recombinant human C-terminal His6-tagged p110gamma expressed in insect cells using phosphatidylinositol as substrate in presence of gamma-32P-ATP after 5 mins by thin layer chromatographic method.
Phosphatidylinositol 4,5-bisphosphate 3-kinase catalytic subunit gamma isoform, sequence (P48736 whole entry, canonical isoform): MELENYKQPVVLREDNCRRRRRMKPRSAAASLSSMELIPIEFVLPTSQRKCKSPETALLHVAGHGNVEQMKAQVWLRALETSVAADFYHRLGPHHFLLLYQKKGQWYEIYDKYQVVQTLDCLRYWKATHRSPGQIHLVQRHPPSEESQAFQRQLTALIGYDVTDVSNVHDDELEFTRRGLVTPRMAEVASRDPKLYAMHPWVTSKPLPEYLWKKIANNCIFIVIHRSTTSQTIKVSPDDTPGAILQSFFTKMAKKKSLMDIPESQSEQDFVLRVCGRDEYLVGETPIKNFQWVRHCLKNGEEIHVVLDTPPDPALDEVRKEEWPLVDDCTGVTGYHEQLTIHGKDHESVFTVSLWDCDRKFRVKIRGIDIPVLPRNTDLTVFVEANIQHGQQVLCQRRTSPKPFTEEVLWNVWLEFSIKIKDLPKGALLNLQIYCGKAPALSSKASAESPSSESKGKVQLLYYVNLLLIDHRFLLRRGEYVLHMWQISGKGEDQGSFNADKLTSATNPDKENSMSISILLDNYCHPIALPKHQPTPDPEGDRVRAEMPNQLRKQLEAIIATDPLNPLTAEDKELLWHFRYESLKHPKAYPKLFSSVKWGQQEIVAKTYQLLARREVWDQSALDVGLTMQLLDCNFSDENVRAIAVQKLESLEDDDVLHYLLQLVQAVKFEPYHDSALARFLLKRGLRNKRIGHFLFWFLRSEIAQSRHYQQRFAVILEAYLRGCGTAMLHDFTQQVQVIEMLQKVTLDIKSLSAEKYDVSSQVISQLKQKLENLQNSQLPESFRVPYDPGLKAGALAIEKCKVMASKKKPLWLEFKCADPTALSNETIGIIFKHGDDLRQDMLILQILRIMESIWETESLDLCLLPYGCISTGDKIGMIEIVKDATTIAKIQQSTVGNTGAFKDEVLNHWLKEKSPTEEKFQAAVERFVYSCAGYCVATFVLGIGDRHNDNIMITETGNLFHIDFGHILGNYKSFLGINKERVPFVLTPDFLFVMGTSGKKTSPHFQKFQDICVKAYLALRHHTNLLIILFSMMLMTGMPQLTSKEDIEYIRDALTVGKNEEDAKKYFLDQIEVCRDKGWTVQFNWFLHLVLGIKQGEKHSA
Assay [2] addresses PI3-kinase p110-alpha/p85-alpha (Homo sapiens, UniProt P42336). Briefly: Inhibition of N-terminal His6-tagged recombinant full-length human p110alpha/untagged recombinant full length human p85alpha expressed in baculovirus infected Sf21 cells using phosphatidylinositol as substrate in presence of gamma-32P-ATP after 5 mins by thin layer chromatographic method.
Assay [3] addresses PI3-kinase p110-delta/p85-alpha (Homo sapiens, UniProt O00329). Briefly: Inhibition of N-terminal His6-tagged recombinant full-length human p110delta/untagged recombinant full length p85alpha expressed in baculovirus infected Sf21 cells using phosphatidylinositol as substrate in presence of gamma-32P-ATP after 5 mins by thin layer chromatographic method.
The target in the next assay is PI3K p110 beta/p85 alpha (Homo sapiens, UniProt P42338). Briefly: Inhibition of N-terminal His6-tagged recombinant full-length human p110beta/untagged recombinant full length p85alpha expressed in baculovirus infected Sf21 cells using phosphatidylinositol as substrate in presence of gamma-32P-ATP after 5 mins by thin layer chromatographic method.
PI3K p110 beta/p85 alpha, sequence (P27986 whole entry): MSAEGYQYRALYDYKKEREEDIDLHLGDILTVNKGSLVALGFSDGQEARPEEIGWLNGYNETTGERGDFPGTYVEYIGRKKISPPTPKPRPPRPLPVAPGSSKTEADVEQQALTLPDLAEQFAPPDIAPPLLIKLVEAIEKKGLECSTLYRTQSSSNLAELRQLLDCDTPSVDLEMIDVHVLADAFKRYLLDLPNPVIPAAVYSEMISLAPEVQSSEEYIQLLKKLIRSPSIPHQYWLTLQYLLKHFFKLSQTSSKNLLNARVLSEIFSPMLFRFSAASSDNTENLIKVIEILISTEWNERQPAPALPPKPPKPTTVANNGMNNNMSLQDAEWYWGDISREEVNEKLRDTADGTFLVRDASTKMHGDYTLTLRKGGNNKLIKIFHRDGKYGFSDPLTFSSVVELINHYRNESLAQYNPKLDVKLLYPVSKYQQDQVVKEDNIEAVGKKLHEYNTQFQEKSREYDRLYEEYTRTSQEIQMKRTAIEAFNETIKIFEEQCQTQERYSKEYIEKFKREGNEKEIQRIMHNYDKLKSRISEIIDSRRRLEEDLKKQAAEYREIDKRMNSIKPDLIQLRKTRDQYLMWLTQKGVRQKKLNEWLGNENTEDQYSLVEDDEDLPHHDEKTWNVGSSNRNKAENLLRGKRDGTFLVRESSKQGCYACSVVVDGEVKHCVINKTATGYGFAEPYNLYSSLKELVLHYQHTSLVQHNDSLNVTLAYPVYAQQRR
PI3K p110 beta/p85 alpha, sequence (P42338 whole entry): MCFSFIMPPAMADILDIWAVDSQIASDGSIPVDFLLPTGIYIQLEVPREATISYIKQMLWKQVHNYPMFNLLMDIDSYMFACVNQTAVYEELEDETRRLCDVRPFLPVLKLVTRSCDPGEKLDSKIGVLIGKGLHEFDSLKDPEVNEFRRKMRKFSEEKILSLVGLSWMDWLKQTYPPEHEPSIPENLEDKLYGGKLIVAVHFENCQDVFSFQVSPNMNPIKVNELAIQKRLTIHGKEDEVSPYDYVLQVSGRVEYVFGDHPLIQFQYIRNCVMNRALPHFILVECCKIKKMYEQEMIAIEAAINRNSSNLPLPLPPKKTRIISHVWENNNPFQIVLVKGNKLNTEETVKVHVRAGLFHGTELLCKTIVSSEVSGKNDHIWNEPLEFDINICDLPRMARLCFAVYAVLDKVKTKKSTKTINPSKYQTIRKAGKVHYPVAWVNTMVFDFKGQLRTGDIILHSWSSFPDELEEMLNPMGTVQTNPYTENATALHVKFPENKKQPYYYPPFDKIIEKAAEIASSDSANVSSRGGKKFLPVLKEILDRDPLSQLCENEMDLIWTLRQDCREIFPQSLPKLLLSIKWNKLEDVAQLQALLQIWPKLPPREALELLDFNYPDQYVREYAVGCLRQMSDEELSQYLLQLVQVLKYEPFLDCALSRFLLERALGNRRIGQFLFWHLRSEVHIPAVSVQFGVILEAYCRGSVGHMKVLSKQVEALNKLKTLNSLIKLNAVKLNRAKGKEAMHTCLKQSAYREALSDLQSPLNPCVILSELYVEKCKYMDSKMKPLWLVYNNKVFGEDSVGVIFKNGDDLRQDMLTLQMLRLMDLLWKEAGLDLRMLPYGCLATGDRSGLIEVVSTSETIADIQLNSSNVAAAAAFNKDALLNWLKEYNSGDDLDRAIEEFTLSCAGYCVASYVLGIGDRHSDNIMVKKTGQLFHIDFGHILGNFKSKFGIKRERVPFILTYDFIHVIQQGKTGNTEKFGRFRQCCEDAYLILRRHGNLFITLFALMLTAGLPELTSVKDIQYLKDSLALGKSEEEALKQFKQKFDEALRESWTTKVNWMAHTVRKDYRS
The nature of assay [4]: Antiproliferative activity against Balb/c mouse splenic B cells preincubated for 30 mins followed by LPS or F(ab')2 donkey anti-mouse IgM and recombinant mouse IL4 stimulation measured after 72 hrs by Alamar Blue reduction assay. It is filed as functional, cell-based. For orientation: Resazurin is reduced to fluorescent resorufin, in cell work by metabolically active cells.

PI3-kinase p110-delta/p85-alpha, sequence (P27986 whole entry): as the sequence (P27986 whole entry) above
PI3-kinase p110-delta/p85-alpha, sequence (O00329 whole entry): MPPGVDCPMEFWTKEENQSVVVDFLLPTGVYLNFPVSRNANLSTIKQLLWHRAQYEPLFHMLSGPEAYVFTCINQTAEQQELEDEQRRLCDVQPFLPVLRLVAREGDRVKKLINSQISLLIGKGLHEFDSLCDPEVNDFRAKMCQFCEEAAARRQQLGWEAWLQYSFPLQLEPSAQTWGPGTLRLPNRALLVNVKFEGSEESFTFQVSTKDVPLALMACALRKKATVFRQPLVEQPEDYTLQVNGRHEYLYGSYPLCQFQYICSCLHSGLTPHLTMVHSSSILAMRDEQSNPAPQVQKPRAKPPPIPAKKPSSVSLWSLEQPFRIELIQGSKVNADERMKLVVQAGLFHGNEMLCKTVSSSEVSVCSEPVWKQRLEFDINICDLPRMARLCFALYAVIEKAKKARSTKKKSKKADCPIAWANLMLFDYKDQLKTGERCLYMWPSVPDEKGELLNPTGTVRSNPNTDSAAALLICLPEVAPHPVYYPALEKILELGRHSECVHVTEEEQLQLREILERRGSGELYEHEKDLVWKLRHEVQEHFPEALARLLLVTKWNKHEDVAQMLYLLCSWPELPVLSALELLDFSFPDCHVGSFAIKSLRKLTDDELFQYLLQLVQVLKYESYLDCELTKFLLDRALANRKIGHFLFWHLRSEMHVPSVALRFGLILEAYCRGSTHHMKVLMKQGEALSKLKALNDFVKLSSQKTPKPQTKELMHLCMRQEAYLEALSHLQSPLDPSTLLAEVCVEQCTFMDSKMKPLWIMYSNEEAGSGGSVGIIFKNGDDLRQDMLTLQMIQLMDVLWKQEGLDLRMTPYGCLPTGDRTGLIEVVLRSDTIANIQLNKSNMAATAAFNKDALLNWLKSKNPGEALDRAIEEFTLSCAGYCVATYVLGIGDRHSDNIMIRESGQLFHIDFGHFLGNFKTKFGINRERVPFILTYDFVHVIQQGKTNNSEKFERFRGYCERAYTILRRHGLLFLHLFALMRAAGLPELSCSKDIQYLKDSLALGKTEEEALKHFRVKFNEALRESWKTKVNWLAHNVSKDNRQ
PI3-kinase p110-alpha/p85-alpha, sequence (P27986 whole entry): as the sequence (P27986 whole entry) above
PI3-kinase p110-alpha/p85-alpha, sequence (P42336 whole entry): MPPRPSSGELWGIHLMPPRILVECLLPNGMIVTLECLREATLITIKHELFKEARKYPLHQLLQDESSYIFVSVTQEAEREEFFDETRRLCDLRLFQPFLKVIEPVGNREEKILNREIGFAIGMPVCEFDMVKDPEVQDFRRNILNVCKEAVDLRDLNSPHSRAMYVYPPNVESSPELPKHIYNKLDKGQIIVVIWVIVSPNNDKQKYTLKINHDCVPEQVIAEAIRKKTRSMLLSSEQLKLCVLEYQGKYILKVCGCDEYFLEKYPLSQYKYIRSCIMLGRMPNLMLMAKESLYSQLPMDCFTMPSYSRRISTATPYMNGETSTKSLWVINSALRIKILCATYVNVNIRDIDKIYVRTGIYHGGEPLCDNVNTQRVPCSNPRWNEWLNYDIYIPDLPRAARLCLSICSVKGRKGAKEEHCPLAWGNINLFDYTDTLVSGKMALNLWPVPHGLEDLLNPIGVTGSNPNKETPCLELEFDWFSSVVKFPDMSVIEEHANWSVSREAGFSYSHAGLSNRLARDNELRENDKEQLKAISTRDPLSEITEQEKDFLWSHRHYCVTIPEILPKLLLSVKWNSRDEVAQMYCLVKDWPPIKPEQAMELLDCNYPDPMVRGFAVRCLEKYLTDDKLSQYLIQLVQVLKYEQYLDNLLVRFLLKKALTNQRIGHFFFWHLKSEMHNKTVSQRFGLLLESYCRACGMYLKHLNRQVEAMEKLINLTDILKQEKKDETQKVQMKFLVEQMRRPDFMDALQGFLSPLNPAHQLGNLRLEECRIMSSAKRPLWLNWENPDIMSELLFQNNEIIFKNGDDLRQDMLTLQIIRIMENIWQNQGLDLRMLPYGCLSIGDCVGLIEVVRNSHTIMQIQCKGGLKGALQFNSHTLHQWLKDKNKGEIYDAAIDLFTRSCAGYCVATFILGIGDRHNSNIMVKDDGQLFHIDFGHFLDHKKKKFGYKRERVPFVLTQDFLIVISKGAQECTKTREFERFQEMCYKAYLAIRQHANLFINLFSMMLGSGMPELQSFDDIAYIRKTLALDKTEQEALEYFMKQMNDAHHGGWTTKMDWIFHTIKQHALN

For `Cc1ccccc1-n1c(Cn2nc(CCC(N)=O)c3c(N)ncnc32)cc2cccc(C)c2c1=O`, the IC50 (commonly the concentration needed to halve the response being measured) was < 10 µM in assay [1], > 10 µM in assay [2], < 1 µM in assay [3] and > 10 µM at PI3K p110 beta/p85 alpha.
Take `Cc1ccccc1-n1c(Cn2nc(C#N)c3c(N)ncnc32)cc2cccc(C)c2c1=O`: the half-inhibitory concentration (IC50) in assay [1] was < 10 µM; in assay [2], > 10 µM; in assay [3] it was < 0.1 µM; on PI3K p110 beta/p85 alpha, > 10 µM. In assay [4], the concentration for a half-maximal effect (EC50) (commonly the concentration giving half of the maximal effect) is < 0.1 µM.
In the case of `Cc1ccccc1-n1c(Cn2nc(CN3CCOCC3)c3c(N)ncnc32)cc2cccc(C)c2c1=O`, the IC50 in assay [1] was > 10 µM; in assay [2], > 10 µM; in assay [3], < 10 µM; on PI3K p110 beta/p85 alpha, > 10 µM.
`Cc1ccccc1-n1c(Cn2nc(/C=C/C(=O)N3CCOCC3)c3c(N)ncnc32)cc2cccc(C)c2c1=O`: the half-maximal inhibitory concentration (IC50) in assay [1] is > 10 µM; in assay [2] it was > 10 µM; in assay [3], < 1 µM; on PI3K p110 beta/p85 alpha, > 10 µM.
Turning to `Nc1ncnc2c1c(-c1cn[nH]c1)nn2Cc1cc2cccc(F)c2c(=O)n1-c1ccccc1F`, the IC50 is < 10 µM in assay [1], > 10 µM in assay [2], < 1 µM in assay [3] and > 10 µM at PI3K p110 beta/p85 alpha.
For `Cc1ccccc1-n1c(CN(C)c2ncnc3[nH]cnc23)cc2cccc(C)c2c1=O`, the 50% inhibitory concentration (IC50) in assay [1] was < 10 µM; in assay [2] it was > 10 µM; on PI3K p110 beta/p85 alpha it was > 10 µM.
In the case of `Cc1ccccc1-n1c(Cn2nc(Cl)c3c(N)ncnc32)cc2cccc(C)c2c1=O`, the concentration for half-maximal inhibition (IC50) was < 1 µM in assay [1], > 10 µM in assay [2] and < 0.1 µM in assay [3]. In assay [4], the EC50 is < 1 µM.
Regarding `Cc1cccc2cc(Cn3nc(-c4cn[nH]c4)c4c(N)ncnc43)n(-c3cccc(F)c3)c(=O)c12`, the IC50 was < 1 µM in assay [1], > 10 µM in assay [2], < 0.1 µM in assay [3] and > 10 µM on PI3K p110 beta/p85 alpha. The EC50 in assay [4] was < 0.1 µM.
Regarding `Cc1ccccc1-n1c(Cn2nc(-c3ccc(F)cc3)c3c(N)ncnc32)cc2cccc(C)c2c1=O`, the concentration for half-maximal inhibition (IC50) in assay [1] was < 1 µM; in assay [2] it was > 10 µM; in assay [3], < 10 µM; on PI3K p110 beta/p85 alpha, > 10 µM. Besides, the half-maximal effective concentration (EC50) in assay [4] was < 10 µM.
For `COc1cc(F)cc(-c2nn(Cc3cc4cccc(C)c4c(=O)n3-c3ccccc3C)c3ncnc(N)c23)c1`, the IC50 was < 10 µM in assay [1], > 10 µM in assay [2], < 1 µM in assay [3] and > 10 µM on PI3K p110 beta/p85 alpha.
As for `C=Cc1nn(Cc2cc3cccc(C)c3c(=O)n2-c2ccccc2C)c2ncnc(N)c12`, the IC50 in assay [1] is < 1 µM; in assay [2] it was > 10 µM; in assay [3], < 0.1 µM; at PI3K p110 beta/p85 alpha it was > 10 µM. Moreover, in assay [4], the EC50 is < 0.1 µM.
On to `Cc1cccc2cc(Cn3nc(I)c4c(N)ncnc43)n(C)c(=O)c12`, for which the concentration for half-maximal inhibition (IC50) in assay [1] was < 10 µM; in assay [2], > 10 µM; in assay [3] it was < 1 µM; on PI3K p110 beta/p85 alpha, > 10 µM. The EC50 in assay [4] was < 1 µM.
Consider `Cc1cccc2cc(Cn3nc(-c4ccc5nc(N)sc5c4)c4c(N)ncnc43)n(-c3ccccc3)c(=O)c12`, for which the half-maximal inhibitory concentration (IC50) in assay [1] was < 0.1 µM; in assay [2], < 100 µM; in assay [3], < 0.1 µM. For the same compound, the EC50 in assay [4] is < 0.1 µM.
As to `Cc1ccccc1-n1c(Cn2nc(-c3cnn(CCO)c3)c3c(N)ncnc32)cc2cccc(C)c2c1=O`, the results for the 50% inhibitory concentration (IC50) (in assay [1]; in assay [2]; at PI3K p110 beta/p85 alpha) were < 1 µM, > 10 µM and > 10 µM, respectively. In assay [4], the EC50 is < 1 µM.
As to `Cc1cccc2cc(Cn3nc(-c4cnn(C)c4)c4c(N)ncnc43)n(-c3ccccc3F)c(=O)c12`, the IC50 in assay [1] was < 10 µM; in assay [2], > 10 µM; in assay [3] it was < 10 µM; at PI3K p110 beta/p85 alpha it was > 10 µM.
As to `Cc1ccccc1-n1c(Cn2nc(-c3cccc(O)c3)c3c(N)ncnc32)cc2ccccc2c1=O`, the results for the concentration for half-maximal inhibition (IC50) in assay [1], in assay [2] and in assay [3] were < 1 µM, > 10 µM and < 0.1 µM, respectively. In addition, the EC50 in assay [4] was < 1 µM.
For `COc1ccc(-c2nn(Cc3cc4cccc(C)c4c(=O)n3-c3ccccc3F)c3ncnc(N)c23)cc1OC`, the IC50 in assay [1] is < 1 µM; in assay [2] it was > 10 µM; in assay [3] it was < 1 µM. Moreover, the half-maximal effective concentration (EC50) in assay [4] is < 1 µM.
For `Cc1cccc2cc(Cn3nc(-c4ccn[nH]4)c4c(N)ncnc43)n(-c3ccccc3F)c(=O)c12`, the IC50 was < 10 µM in assay [1], > 10 µM in assay [2], < 1 µM in assay [3] and > 10 µM on PI3K p110 beta/p85 alpha.
For `Cc1cccnc1-n1c(Cn2nc(Br)c3c(N)ncnc32)cc2cccc(C)c2c1=O`, the IC50 in assay [1] was < 10 µM; in assay [2] it was > 10 µM; in assay [3] it was < 1 µM. Further, the 50% effective concentration (EC50) in assay [4] is < 0.1 µM.
Taken in the same sequence, the figures for `Cc1ccccc1-n1c(Cn2nc(-c3ccc(Cl)cc3)c3c(N)ncnc32)cc2cccc(C)c2c1=O` were < 1 µM, > 10 µM, < 1 µM and < 10 µM.
For `Cc1cccc2cc(Cn3nc(I)c4c(N)ncnc43)n(C(C)C)c(=O)c12`, the IC50 is > 10 µM in assay [1], > 10 µM in assay [2], 0.1 to 10 µM in assay [3] and > 10 µM at PI3K p110 beta/p85 alpha.
On to `Cc1cccc2cc(Cn3nc(C#C[C@@H](C)O)c4c(N)ncnc43)n(C3CCCC3)c(=O)c12`, for which the IC50 was < 10 µM in assay [1], > 10 µM in assay [2], < 0.1 µM in assay [3] and < 10 µM at PI3K p110 beta/p85 alpha.
As for `Cc1cccc2cc(Cn3nc(-c4ccc5oc(N)nc5c4)c4c(N)ncnc43)n(C3CC3)c(=O)c12`, the results for the IC50 in assay [1], in assay [2] and in assay [3] were < 0.1 µM, < 100 µM and < 0.1 µM, respectively. Besides, the concentration for a half-maximal effect (EC50) in assay [4] was < 0.1 µM.
In the case of `Cc1ccccc1-n1c(Cn2nc(CCC(=O)N3CCOCC3)c3c(N)ncnc32)cc2cccc(C)c2c1=O`, the concentration for half-maximal inhibition (IC50) in assay [1] was > 10 µM; in assay [2], > 10 µM; in assay [3], < 10 µM; on PI3K p110 beta/p85 alpha it was > 10 µM.
On to `Cc1cccc2cc(Cn3nc(/C=C4/CCNC4=O)c4c(N)ncnc43)n(-c3ccccc3F)c(=O)c12`, for which the IC50 in assay [1] was > 10 µM; in assay [2], > 10 µM; in assay [3], < 10 µM; on PI3K p110 beta/p85 alpha it was > 10 µM.
As to `Cc1ccccc1-n1c(Cn2nc(-c3cnn(C)c3)c3c(N)ncnc32)cc2cccc(C)c2c1=O`, the IC50 in assay [1] was < 1 µM; in assay [2], > 10 µM; in assay [3] it was < 10 µM; on PI3K p110 beta/p85 alpha it was > 10 µM.
On to `Cc1cccc2cc(Cn3nc(-c4cccc(O)c4)c4c(N)ncnc43)n(C3CCCC3)c(=O)c12`, for which the IC50 in assay [1] is < 1 µM; in assay [2] it was > 10 µM; in assay [3] it was < 0.1 µM; at PI3K p110 beta/p85 alpha, < 10 µM.
For `C=Cc1nn(Cc2cc3cccc(C)c3c(=O)n2-c2ccccc2F)c2ncnc(N)c12`, the IC50 in assay [1] is < 10 µM; in assay [2] it was > 10 µM; in assay [3], < 1 µM; on PI3K p110 beta/p85 alpha, > 10 µM.
As to `CCN(Cc1cc2cccc(C)c2c(=O)n1-c1ccccc1C)c1ncnc2[nH]cnc12`, the IC50 was < 10 µM in assay [1], > 10 µM in assay [2], < 10 µM in assay [3] and > 10 µM on PI3K p110 beta/p85 alpha.
`Cc1cccnc1-n1c(Cn2nc(Cl)c3c(N)ncnc32)cc2cccc(C)c2c1=O`: the half-inhibitory concentration (IC50) in assay [1] was > 10 µM; in assay [2] it was > 10 µM; in assay [3] it was < 1 µM. Besides, the EC50 in assay [4] was < 1 µM.
